Measurements taken from patent US10934304B2, “Spirocyclic compounds” (Recurium IP Holdings, LLC, priority 2016, dated 2021).

How the values were obtained:
[1] = test system: A375 (melanoma) cells; assay: Proliferation Assay (CellTiter-Glo); format: cell-based; conditions: 3 days incubation, CellTiter-Glo luminescence
Protocol: A375 (melanoma), Colo-205 (colon cancer), Miapaca (pancreatic), HPAFII (pancreatic), sNF02.0 (neurofibromatosis type 1), sNF96.2 (neurofibromatosis type 1) and 8505 (Thyroid) cells were grown and maintained in RPMI-1640 medium containing 100 U/mL penicillin-streptomycin and 10% fetal bovine serum. Cells were in growth medium in 96-well opaque-walled clear bottom plates and incubated in the CO2 incubator overnight before treatment. Cells were treated with compounds diluted in DMSO and a 10 point 3-fold serial dilutions were done. Plates were placed in 37° C., 5% CO2 to incubate for 3 days. Before they were developed by adding 100 μL of CellTiter-Glo reagent (Promega) to the assay plate, plates were shaken briefly for 2 mins and allowed to incubate at room temperature for 10 mins. The bottom of the plates was pasted with white back seal and luminescence was recorded with Flexstation3 with setting of luminescence, integration time 500 ms.
Compounds of Formula (I), (II) and (III) are active in this assay as noted in Table 2.

[2] = molecular target: ERK2 (Homo sapiens (Human), UniProt P28482); assay: Active ERK1 and ERK2 Kinase Assay (Mobility Shift Assay); format: biochemical; conditions: activated ERK2, Mobility Shift Assay
Protocol: Activated ERK1 and ERK2 activity was determined in a Mobility Shift Assay (MSA) format as follows: Compound and kinase solution were prepared with assay buffer (20 mM HEPES, 0.01% Triton X-100, 2 mM DTT, pH7.5) and mixed and incubated in for 30 mins at rt. ERK1 & ERK2 were then activated by the addition of F1-Substrate, ATP and metal solution and incubated for 1 h at rt. After 1 h, the reaction was terminated by the addition of […] of Termination Buffer (QuickScout Screening Assist MSA; Carna Biosciences) to the well. The reaction mixture was applied to LabChip™ system (PerkinElmer), and the product and substrate peptide peaks were separated, analyzed and quantitated. The kinase reaction is evaluated by the product ratio calculated from peak heights of product (P) and substrate(S) peptides (P/(P+S)).

Chain of ERK2 (P28482 whole entry): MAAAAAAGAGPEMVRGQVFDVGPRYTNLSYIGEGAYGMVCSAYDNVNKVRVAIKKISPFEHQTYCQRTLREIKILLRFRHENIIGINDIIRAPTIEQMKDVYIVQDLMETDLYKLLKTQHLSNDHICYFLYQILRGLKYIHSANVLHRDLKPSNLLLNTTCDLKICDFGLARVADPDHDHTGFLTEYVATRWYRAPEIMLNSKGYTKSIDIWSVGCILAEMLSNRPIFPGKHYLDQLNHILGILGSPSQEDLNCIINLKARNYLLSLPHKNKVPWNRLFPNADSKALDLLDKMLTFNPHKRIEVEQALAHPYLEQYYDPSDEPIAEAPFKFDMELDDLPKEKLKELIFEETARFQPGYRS

IC50 ([1]; Homo sapiens, A-375, 72 h)	IC50 [2]	IC50 [1]	Compound
≤ 0.5 µM	≤ 0.05 µM		Cc1ccc(-c2n[nH]c3ccc(N4CC[C@]5(CCN(CC(=O)N6CC=C(c7ccc(-c8nn(C)c(=O)o8)cc7)CC6)C5)C4=O)nc23)cn1 [Example 35]
≤ 0.5 µM	≤ 0.05 µM		COc1ccc(-c2n[nH]c3ccc(N4CC[C@]5(CCN(CC(=O)N6CC=C(c7ncc(-c8ncn(C)n8)s7)CC6)C5)C4=O)nc23)cn1 [Example 36]
≤ 0.5 µM	≤ 0.05 µM		Cn1cc(-c2n[nH]c3ccc(N4CC[C@]5(CCN(CC(=O)N6CC=C(c7ccc(-c8ncn(C)n8)cc7)CC6)C5)C4=O)nc23)cn1 [Example 37]
≤ 0.5 µM	≤ 0.05 µM		Cc1cc(-c2n[nH]c3ccc(N4CC[C@]5(CCN(CC(=O)N6CC=C(c7ccc(-c8ncn(C)n8)cc7)CC6)C5)C4=O)nc23)ccn1 [Example 38]
≥ 1 µM	0.05 to 0.25 µM		Cn1ccc(-c2n[nH]c3ccc(N4CC[C@]5(CCN(CC(=O)N6CC=C(c7ccc(-c8ncn(C)n8)cc7)CC6)C5)C4=O)nc23)n1 [Example 39]
≤ 0.5 µM	≤ 0.05 µM		CC(C)n1cc(-c2n[nH]c3ccc(N4CC[C@]5(CCN(CC(=O)N6CC=C(c7ccc(-c8ncn(C)n8)cc7)CC6)C5)C4=O)nc23)cn1 [Example 40]
≥ 1 µM	≥ 0.25 µM		Cn1cnc(-c2ccc(C3=CCN(C(=O)CN4CC[C@]5(CCN(c6ccc7[nH]nc(N8CCC9(CC8)COC9)c7n6)C5=O)C4)CC3)cc2)n1 [Example 42, (S)-2-(3-(2-oxa-7-azaspiro[3.5]nonan-7-yl)-1H-pyrazolo[4,3-b]pyridin-5-yl)-7-(2-(4-(4-(1-methyl-1H-1,2,4-triazol-3-yl)phenyl)-3,6-dihydropyridin-1(2H)-yl)-2-oxoethyl)-2,7-diazaspiro[4.4]nonan-1-one]
	≤ 0.05 µM	≤ 0.5 µM	Cc1cc(-c2n[nH]c3ccc(N4CC[C@]5(CCN(CC(=O)N6CCN(c7ccc(-c8ncn(C)n8)cn7)CC6)C5)C4=O)nc23)ccn1 [Example 44]
	≤ 0.05 µM	≤ 0.5 µM	Cn1cnc(-c2cnc(C3=CCN(C(=O)CN4CC[C@]5(CCN(c6ccc7[nH]nc(-c8ccc(F)cn8)c7c6)C5=O)C4)CC3)s2)n1 [Example 54]
	≤ 0.05 µM	≤ 0.5 µM	Cn1cnc(-c2ccc(C3=CCN(C(=O)CN4CC[C@]5(CCN(c6ccc7[nH]nc(-c8ccc(F)cn8)c7c6)C5=O)C4)CC3)s2)n1 [Example 55]
	≤ 0.05 µM	≤ 0.5 µM	Cn1cnc(-c2ccc(N3CCN(C(=O)CN4CC[C@]5(CCN(c6ccc7[nH]nc(-c8ccc(F)cn8)c7c6)C5=O)C4)CC3)cc2)n1 [Example 56]
	≤ 0.05 µM	≤ 0.5 µM	Cn1cnc(-c2ccc(N3CCN(C(=O)CN4CC[C@]5(CCN(c6ccc7[nH]nc(-c8ccc(F)cn8)c7c6)C5=O)C4)CC3)nc2)n1 [Example 57]
≤ 0.5 µM	≤ 0.05 µM		Cn1cnc(-c2ccc(C3=CCN(C(=O)CN4CC[C@]5(CCN(c6ccc7[nH]nc(-c8cnn(C)n8)c7c6)C5=O)C4)CC3)cc2)n1 [Example 58, (S)-7-(2-(4-(4-(1-methyl-1H-1,2,4-triazol-3-yl)phenyl)-3,6-dihydropyridin-1(2H)-yl)-2-oxoethyl)-2-(3-(2-methyl-2H-1,2,3-triazol-4-yl)-1H-indazol-5-yl)-2,7-diazaspiro[4.4]nonan-1-one]
	≤ 0.05 µM	0.5 to 1 µM	Cn1cnc(-c2ccc(C3=CCN(C(=O)CN4CC[C@]5(CCN(c6ccc7[nH]nc(-c8cnn(C)n8)c7n6)C5=O)C4)CC3)cc2)n1 [Example 59]
	≤ 0.05 µM	≤ 0.5 µM	COc1ccc(-c2n[nH]c3ccc(N4CC[C@]5(CCN(CC(=O)N6CC=C(c7ccc(-c8ncn(C)n8)cc7)CC6)C5)C4=O)cc23)nc1 [Example 60]
	≤ 0.05 µM	≤ 0.5 µM	COc1cccc(-c2n[nH]c3ccc(N4CC[C@]5(CCN(CC(=O)N6CC=C(c7ccc(-c8ncn(C)n8)cc7)CC6)C5)C4=O)cc23)n1 [Example 61]
	≤ 0.05 µM	0.5 to 1 µM	Cn1cnc(-c2ccc(C3=CCN(C(=O)CN4CC[C@]5(CCN(c6ccc7[nH]nc(-c8ccc9c(c8)OC(C)(C)O9)c7n6)C5=O)C4)CC3)cc2)n1 [Example 62]
	≤ 0.05 µM	≤ 0.5 µM	COc1ccc(-c2n[nH]c3ccc(N4CC[C@]5(CCN(CC(=O)N6CC=C(c7ccc(-c8ncn(C)n8)cc7)CC6)C5)C4=O)nc23)cc1 [Example 63]
	≤ 0.05 µM	≤ 0.5 µM	Cn1cnc(-c2ccc(C3=CCN(C(=O)CN4CC[C@]5(CCN(c6ccc7[nH]nc(C8CCOCC8)c7n6)C5=O)C4)CC3)s2)n1 [Example 64]
	≤ 0.05 µM	≤ 0.5 µM	CC(C)Oc1ccc(-c2n[nH]c3ccc(N4CC[C@]5(CCN(CC(=O)N6CC=C(c7ccc(-c8ncn(C)n8)s7)CC6)C5)C4=O)nc23)cn1 [Example 65]
	≤ 0.05 µM	≤ 0.5 µM	COc1ccc(-c2n[nH]c3ccc(N4CC[C@]5(CCN(CC(=O)N6CC=C(c7ccc(-c8ncn(C)n8)s7)CC6)C5)C4=O)nc23)cn1 [Example 66]
	≤ 0.05 µM	≤ 0.5 µM	Cn1cnc(-c2ccc(C3=CCN(C(=O)CN4CC[C@]5(CCN(c6ccc7[nH]nc(-c8ccc(OC9CC9)nc8)c7n6)C5=O)C4)CC3)cc2)n1 [Example 67]
	≤ 0.05 µM	≤ 0.5 µM	Cn1cnc(-c2ccc(C3=CCN(C(=O)CN4CC[C@]5(CCN(c6ccc7[nH]nc(-c8ccc(Cl)cc8)c7n6)C5=O)C4)CC3)cc2)n1 [Example 68]

Compound	IC50 ([1]; Homo sapiens, A-375, 72 h)	IC50 [2]	IC50 [1]
CC(C)n1cc(-c2n[nH]c3ccc(N4CC[C@]5(CCN(CC(=O)N6CCN(c7ccc(-c8ncn(C)n8)cc7)CC6)C5)C4=O)nc23)cn1 [Example 41]		≤ 0.05 µM	≤ 0.5 µM
Cc1ccc(-c2n[nH]c3ccc(N4CC[C@]5(CCN(CC(=O)N6CC=C(c7ncc(-c8ncn(C)n8)s7)CC6)C5)C4=O)nc23)cn1 [Example 43]		≤ 0.05 µM	≤ 0.5 µM
Cn1cnc(-c2ccc(N3CCN(C(=O)CN4CC[C@]5(CCN(c6ccc7[nH]nc(-c8ccc(F)cc8)c7n6)C5=O)C4)CC3)nc2)n1 [Example 45]		≤ 0.05 µM	≤ 0.5 µM
COc1ccc(-c2n[nH]c3ccc(N4CC[C@]5(CCN(CC(=O)N6CCN(c7ccc(-c8ncn(C)n8)cn7)CC6)C5)C4=O)nc23)cn1 [Example 46]		≤ 0.05 µM	≤ 0.5 µM
Cn1cnc(-c2cnc(C3=CCN(C(=O)CN4CC[C@]5(CCN(c6ccc7[nH]nc(-c8ccc(F)cc8)c7n6)C5=O)C4)CC3)s2)n1 [Example 47]		≤ 0.05 µM	≤ 0.5 µM
C[C@@H]1CN(c2n[nH]c3ccc(N4CC[C@]5(CCN(CC(=O)N6CC=C(c7ccc(-c8ncn(C)n8)cc7)CC6)C5)C4=O)nc23)C[C@H](C)O1 [Example 48]		≤ 0.05 µM	0.5 to 1 µM
Cn1cnc(-c2ccc(C3=CCN(C(=O)CN4CCC5(CCN(c6ccc7[nH]nc(N8CCOCC8)c7n6)C5=O)C4)CC3)cc2)n1 (stereo not drawn) [Example 49]		≤ 0.05 µM	≤ 0.5 µM
Cn1cnc(-c2ccc(C3=CCN(C(=O)CN4CC[C@]5(CCN(c6ccc7[nH]nc(-c8ccc(F)cn8)c7n6)C5=O)C4)CC3)cc2)n1 [Example 50]		≤ 0.05 µM	0.5 to 1 µM
Cn1cnc(-c2ccc(C3=CCN(C(=O)CN4CC[C@]5(CCN(c6ccc7[nH]nc(-c8ccc(C#N)cn8)c7n6)C5=O)C4)CC3)cc2)n1 [Example 51]		≤ 0.05 µM	≤ 0.5 µM
CC1CC(c2n[nH]c3ccc(N4CCC5(CCN(CC(=O)N6CC=C(c7ccc(-c8nn(C)c(=O)o8)cc7)CC6)C5)C4=O)nc23)CC(C)O1 (stereo not drawn) [Example 52]		≤ 0.05 µM	≤ 0.5 µM
